Usually IC50 stands for the point on the concentration scale where inhibition reaches its midpoint. Higher therefore signals weaker potency in that assay.

The target of the assay is T1, human CB1 receptor (Homo sapiens, UniProt P21554).
T1 construct: expressed in transfected cells; host or cells: SK-N-MC cells, stably transfected with pcDNA3 CB-1 (human); semi-purified membrane pellet
T1 sequence (P21554 whole entry): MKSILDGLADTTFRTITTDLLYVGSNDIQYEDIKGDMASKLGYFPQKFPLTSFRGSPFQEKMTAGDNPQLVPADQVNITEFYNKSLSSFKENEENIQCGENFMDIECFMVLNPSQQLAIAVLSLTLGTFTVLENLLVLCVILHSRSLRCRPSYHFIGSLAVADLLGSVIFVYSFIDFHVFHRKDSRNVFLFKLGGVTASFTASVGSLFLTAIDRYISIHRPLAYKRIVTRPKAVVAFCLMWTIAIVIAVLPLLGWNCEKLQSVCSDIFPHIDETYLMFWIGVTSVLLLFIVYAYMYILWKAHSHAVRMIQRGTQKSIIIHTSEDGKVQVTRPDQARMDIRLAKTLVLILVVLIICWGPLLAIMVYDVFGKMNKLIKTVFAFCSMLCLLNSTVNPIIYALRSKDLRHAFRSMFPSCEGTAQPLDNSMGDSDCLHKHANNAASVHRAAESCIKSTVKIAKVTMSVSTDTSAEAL
In words: biochemical. In kind it is binding. The protocol:
Binding Assay for CB1 or CB2 Agonists or Inverse Agonists
The human CB1 and CB2 receptors were stably expressed in SK-N-MC cells transfected with pcDNA3 CB-1 (human) or pcDNA3 CB-2 (human). The cells were grown in T-180 cell culture flasks under standard cell culture conditions at 37° C. in a 5% CO2 atmosphere. The cells were harvested by trysinization and homogenized in a homogenization buffer (10 mM Tris, 0.2 mM MgCl2, 5 mM KCl, with protease inhibitors aprotinin, leupeptin, pepstatin A and bacitracin) and centrifuged (2000 g). The supernatant was then centrifuged in 2M sucrose (31,300 g) to produce a semi-purified membrane pellet. The pellet was resuspended in homogenization and store at −80° C.
On the day of the assay, the pellet was thawed on ice and diluted in assay buffer (50 mM Tris-HCl, 5 mM MgCl2, 2.5 mM EDTA, 0.5 mg/mL fatty acid free bovine serum albumin, pH 7.5). […] The plate was covered and incubated for 90 minutes at 30° C. The contents were then aspirated onto a Packard […] GF/C filter bottom plate prewet with 0.5% polyethyleneimine. The wells of the polypropylene plate were rinsed and aspirated seven times with a 0.9% saline-0.5% TWEEN 20 solution. The […] plate was dried, a scintillation cocktail was added to each well and the counts representing binding were quantitated in a TOPCOUNT scintillation counter.
The IC50 binding values for compounds tested were calculated by linear regression and were obtained from studies in which varying compound concentrations were used.
Turning to `CC(c1ccccc1)n1nc(C(=O)N[C@@H](C)C2CCCCC2)c2c1CCCC2` (mixture of isomers) [Cpd 249, 1-(1-phenyl-ethyl)-4,5,6,7-tetrahydro-1H-indazole-3-carboxylic acid [(1S)-1-cyclohexyl-ethyl]-amide], the IC50 is 0.05 µM.

For the compound `CC12CCC(C1)C(C)(C)C2NC(=O)c1nn(C2CCCCC2)c2c1CC(=O)CC2` (stereo not shown) [Cpd 96, 1-cyclohexyl-5-oxo-4,5,6,7-tetrahydro-1H-indazole-3-carboxylic acid (1,3,3-trimethyl-bicyclo[2.2.1]hept-2-yl)-amide], the IC50 is 9.5 µM.

The compound `O=C(NC(Cc1ccc(OCc2ccccc2)cc1)C(=O)O)c1nn(Cc2ccccc2)c2c1CCCC2` (stereo not shown) [compound 76] gave an IC50 of 1.96 µM.

The compound `CC(C)(C)OC(=O)NC1CCc2nn(C3CCCCC3)c(C(=O)NC3C4CC5CC(C4)CC3C5)c2C1` (stereo not shown) [compound 84] gave an IC50 of 0.4 µM.

`O=C(NC1C2CC3CC(C2)CC1C3)c1nn(C2CCCCC2)c2c1CC(C(=O)Nn1cnnc1)CC2` (stereo not shown) [compound 95] returned an IC50 of 6.4 µM.

As to `CC(C)(C)C1CCc2c(c(C(=O)NC3C4CC5CC(C4)CC3C5)nn2C2CCCCC2)C1` (stereo not shown) [compound 98], half-maximal inhibition (IC50) was put at 20.5 µM.

Turning to `CC(C)(C)C1CCc2c(c(C(=O)NCC34CC5CC(CC(C5)C3)C4)nn2C2CCCCC2)C1` (stereo not shown) [compound 102], the IC50 was found to be 30.9 µM.

For the compound `CN(C(=O)NC1CCc2c(c(C(=O)NC3C4CC5CC(C4)CC3C5)nn2C2CCCCC2)C1)c1ccccc1` (stereo not shown) [compound 103], the IC50 came to 2 µM.

In the case of `Cc1ccc(S(=O)(=O)NC2CCc3c(c(C(=O)NC4C5CC6CC(C5)CC4C6)nn3C3CCCCC3)C2)cc1` (stereo not shown) [compound 105], the IC50 came to 8.5 µM.

Compound `CN(C)S(=O)(=O)NC1CCc2c(c(C(=O)NC3C4CC5CC(C4)CC3C5)nn2C2CCCCC2)C1` (stereo not shown) [compound 106] came in with an IC50 of 12.7 µM.

As to `O=C(N[C@@H]1C2CCC(C2)[C@@H]1COCc1ccccc1Br)c1nn(C2CCCCC2)c2c1CCCC2` (stereo partly shown) [compound 108], half-maximal inhibition (IC50) required 2.4 µM.

The compound `O=C(NC1CCCCCCC1)c1nn(C2CCCCC2)c2c1CCCC2` [compound 128] gave an IC50 of 0.01 µM.

On to `O=C(NCCN1CCOCC1)c1nn(Cc2ccccc2)c2c1CCCC2` [compound 175], for which the IC50 amounted to 2.16 µM.

As for `C[C@H](NC(=O)c1nn(-c2ccc(Cl)cc2Cl)c2c1CCCC2=Cc1ccc(F)cc1)c1ccccc1` [compound 308], the IC50 amounted to 0.019 µM.

The compound `O=C(NN1CCCCCC1)c1nn(-c2ccc(Cl)cc2Cl)c2c1CCCC2=Cc1ccc(F)cc1` [compound 339] came in with an IC50 of 0.008 µM.

The compound `C[C@@H](NC(=O)c1nn(-c2ccc(Cl)cc2Cl)c2c1CCCC2=Cc1cccs1)C1CCCCC1` [compound 341] displayed an IC50 of 0.02 µM.

As to `O=C(NN1CCCCC1)c1nn(-c2ccc(Cl)cc2Cl)c2c1CCCC2=Cc1cccs1` [compound 342], inhibition was half-maximal at 0.041 µM (IC50).

Turning to `O=C(NN1CCCCCC1)c1nn(-c2ccc(Cl)cc2Cl)c2c1CCCC2=Cc1cccs1` [compound 343], the 50% inhibitory concentration (IC50) stood at 0.037 µM.

As for `CC1CCCC(C)N1NC(=O)c1nn(-c2ccc(Cl)cc2Cl)c2c1CCCC2=Cc1cccs1` (stereo not shown) [compound 344], the IC50 was 0.053 µM.

The compound `O=C(NN1CCCC1)c1nn(-c2ccc(Cl)cc2Cl)c2c1CCCC2=Cc1cccs1` [compound 345] returned an IC50 of 0.07 µM.

Consider `O=C(NN1CC2CCCC2C1)c1nn(-c2ccc(Cl)cc2Cl)c2c1CCCC2=Cc1cccs1` (stereo not shown) [compound 346], for which half-maximal inhibition (IC50) required 0.033 µM.

Compound `O=C(NN1CCCCC1)c1nn(-c2ccc(Cl)cc2Cl)c2c1CCCC2=Cc1ccsc1` [compound 347] yielded an IC50 of 0.018 µM.

On to `O=C(NN1CCCCCC1)c1nn(-c2ccc(Cl)cc2Cl)c2c1CCC/C2=C\c1ccsc1` [compound 348], for which the IC50 was 0.011 µM.

As to `CC1CCCC(C)N1NC(=O)c1nn(-c2ccc(Cl)cc2Cl)c2c1CCC/C2=C\c1ccsc1` (stereo not shown) [compound 349], it took 0.04 µM to reach half-maximal inhibition (IC50).

As to `O=C(NN1CC2CCCC2C1)c1nn(-c2ccc(Cl)cc2Cl)c2c1CCC/C2=C\c1ccsc1` (stereo not shown) [compound 350], half-maximal inhibition (IC50) required 0.017 µM.

`C[C@@H](NC(=O)c1nn(-c2ccc(Cl)cc2Cl)c2c1CCCC2=Cc1ccsc1)C1CCCCC1` [compound 351] displayed an IC50 of 0.012 µM.

Turning to `C[C@@H](NC(=O)c1nn(-c2ccc(Cl)cc2Cl)c2c1CCC/C2=C\c1ccsc1)c1ccccc1` [compound 353], the IC50 turned out to be 0.016 µM.

As to `O=C(N[C@H](CO)c1ccccc1)c1nn(-c2ccc(Cl)cc2Cl)c2c1CCCC2=Cc1ccsc1` [compound 356], the midpoint of inhibition, the IC50, lay at 0.077 µM.

Take `O=C(NN1CCCC1)c1nn(-c2ccc(Cl)cc2Cl)c2c1CCCC2=Cc1ccsc1` [compound 357]: the IC50 came to 0.021 µM.

In turn, `C[C@@H](NC(=O)c1nn(-c2ccc(Cl)cc2Cl)c2c1CCC/C2=C\c1ccoc1)c1ccccc1` [compound 358] came in with an IC50 of 0.013 µM.

In the case of `C[C@@H](NC(=O)c1nn(-c2ccc(Cl)cc2Cl)c2c1CCCC2=Cc1ccoc1)C1CCCCC1` [compound 360], the IC50 stood at 0.012 µM.

Take `CC1CCCC(C)N1NC(=O)c1nn(-c2ccc(Cl)cc2Cl)c2c1CCCC2=Cc1ccoc1` (stereo not shown) [compound 362]: the midpoint of inhibition, the IC50, lay at 0.038 µM.

`O=C(NN1CCCCCC1)c1nn(-c2ccc(Cl)cc2Cl)c2c1CCC/C2=C\c1ccoc1` [compound 363] displayed an IC50 of 0.013 µM.

In turn, `O=C(NN1CCCCC1)c1nn(-c2ccc(Cl)cc2Cl)c2c1CCC/C2=C\c1ccoc1` [compound 364] yielded an IC50 of 0.016 µM.

For the compound `O=C(NN1CC2CCCC2C1)c1nn(-c2ccc(Cl)cc2Cl)c2c1CCC/C2=C\c1ccoc1` (stereo not shown) [compound 365], the IC50 amounted to 0.016 µM.

The compound `O=C(NN1CCCC1)c1nn(-c2ccc(Cl)cc2Cl)c2c1CCCC2=Cc1ccoc1` [compound 368] displayed an IC50 of 0.039 µM.

On to `C[C@@H](NC(=O)c1nn(-c2ccc(Cl)cc2Cl)c2c1CCCC2=Cc1ccco1)c1ccccc1` [compound 371], for which inhibition was half-maximal at 0.039 µM (IC50).

For the compound `O=C(NN1CCCCCC1)c1nn(-c2ccc(Cl)cc2Cl)c2c1CCCC2=Cc1ccco1` [compound 373], half-maximal inhibition (IC50) required 0.02 µM.

For the compound `O=C(NN1CCCCC1)c1nn(-c2ccc(Cl)cc2Cl)c2c1CCC/C2=C\c1ccco1` [compound 374], the IC50 was 0.019 µM.

Compound `O=C(NN1CC2CCCC2C1)c1nn(-c2ccc(Cl)cc2Cl)c2c1CCC/C2=C\c1ccco1` (stereo not shown) [compound 376] yielded an IC50 of 0.016 µM.

On to `O=C(NN1CCCC1)c1nn(-c2ccc(Cl)cc2Cl)c2c1CCC/C2=C\c1ccco1` [compound 377], for which half-maximal inhibition (IC50) was put at 0.043 µM.

`O=C(NN1CC2CCCC2C1)c1nn(-c2ccc(Cl)cc2Cl)c2c1CCCC2=Cc1ccc(Br)cc1` (stereo not shown) [compound 380] registered an IC50 of 0.032 µM.

Consider `C[C@@H](NC(=O)c1nn(-c2ccc(Cl)cc2Cl)c2c1CCC/C2=C\c1ccc(Br)cc1)c1ccccn1` [compound 381], for which the IC50 worked out at 0.015 µM.

`C[C@@H](NC(=O)c1nn(-c2ccc(Cl)cc2Cl)c2c1CCCC2=Cc1ccc(Br)cc1)C1CCCCC1` [compound 382] gave an IC50 of 0.005 µM.

`C[C@@H](NC(=O)c1nn(-c2ccc(Cl)cc2Cl)c2c1CCCC2=Cc1ccc(Br)cc1)c1ccccc1` [compound 383] registered a half-inhibitory concentration (IC50) of 0.01 µM.

The compound `O=C(NN1CCCCC1)c1nn(-c2ccc(Cl)cc2Cl)c2c1CCC/C2=C\c1ccc(Br)cc1` [compound 384] registered an IC50 of 0.021 µM.

The compound `C[C@@H](NC(=O)c1nn(-c2ccc(Cl)cc2Cl)c2c1CCCC2=Cc1ccc(Cl)s1)C1CCCCC1` [compound 385] returned a 50% inhibitory concentration (IC50) of 0.007 µM.

For `C[C@@H](NC(=O)c1nn(-c2ccc(Cl)cc2Cl)c2c1CCC/C2=C\c1ccc(Cl)s1)c1ccccc1` [compound 386], the IC50 was 0.011 µM.

On to `O=C(NN1CCCCC1)c1nn(-c2ccc(Cl)cc2Cl)c2c1CCC/C2=C\c1ccc(Cl)s1` [compound 387], for which the IC50 was found to be 0.033 µM.

In turn, `O=C(NN1CCCCCC1)c1nn(-c2ccc(Cl)cc2Cl)c2c1CCC/C2=C\c1ccc(Cl)s1` [compound 388] yielded an IC50 of 0.015 µM.

For `CC1CCCC(C)N1NC(=O)c1nn(-c2ccc(Cl)cc2Cl)c2c1CCC/C2=C\c1ccc(Cl)s1` (stereo not shown) [compound 389], the IC50 is 0.014 µM.

`O=C(NN1CC2CCCC2C1)c1nn(-c2ccc(Cl)cc2Cl)c2c1CCC/C2=C\c1ccc(Cl)s1` (stereo not shown) [compound 390]: inhibition was half-maximal at 0.02 µM (IC50).

Compound `O=C(NN1CCCC1)c1nn(-c2ccc(Cl)cc2Cl)c2c1CCCC2=Cc1ccc(Cl)s1` [compound 393] displayed an IC50 of 0.043 µM.

In turn, `C[C@@H](NC(=O)c1nn(-c2ccc(Cl)cc2Cl)c2c1CCCC2=Cc1ccc(Br)o1)c1ccccc1` [compound 397] had an IC50 of 0.059 µM.

Compound `C[C@@H](NC(=O)c1nn(-c2ccc(Cl)cc2Cl)c2c1CCC/C2=C\c1ccc(Br)o1)C1CCCCC1` [compound 398] gave an IC50 of 0.048 µM.

The record behind these values is patent publication US7452997B2 (priority 2004, dated 2008).
